Test: in vitro
Details: human, hela cells, % viability

Structure (SMILES)	viability at 28.5 h, 10 µM [%]
Cc1ccc(S(=O)(=O)Nc2c(C(=O)O)[nH]c3ccccc23)cc1 [CBK049880]	72.6
CC(C)Nc1cc(SC2CCCCC2)ncn1 [CBK107163]	92.4
OC(CNCc1ccc2c(c1)OCO2)COc1ccc(SC(F)(F)F)cc1 (stereo not shown) [CBK074691]	120
CC(C)Cn1c(=O)[nH]c2ncc(-c3cccc4cccnc34)nc21 [CBK064400]	60.5
Cc1ccc(S(=O)(=O)NCCCC(=O)Oc2cc3oc(=O)c4c(c3cc2Cl)CCC4)cc1 [CBK264967]	86.8
O=C(O)CCCn1cc(NC(=O)c2ccc(Br)o2)cn1 [CBK270042]	106
CC(=O)N1CCc2c(nc(N(C)C)nc2NCCCOC(C)C)C1 [CBK306745]	84.4
Oc1c(CN2CCN(Cc3ccc4cccnc4c3O)CC2)ccc2cccnc12 [CBK261994]	86.1
CCC(O)c1nc(CCSC)nn1-c1cc(=O)n(C)c2ccccc12 (stereo not shown) [CBK307711]	90.5
CN(C)c1cccc(C(=O)Nc2cnc(-c3cccc(C(F)(F)F)c3)c(-c3cccnc3)n2)c1 [CBK036752]	90.4
O=C(c1cc(F)c(F)cc1F)N1CCC2(CCCNC2)C1 (stereo not shown) [CBK137068T]	87
O=C1CC2CC3CC2C(Sc2ccccc2)C3O1 (stereo not shown) [CBK016225]	97.4
CCNC(=O)COc1ccc(C=Cc2nc(-c3ccccc3)c(C(=O)O)s2)cc1OCC [CBK296644]	94.6
c1ccc2c(-c3ccc(OC4CCNCC4)cc3)cncc2c1 [CBK126578]	112
CC(C)c1ccc(NS(=O)(=O)c2ccc(F)c(C(=O)O)c2)cc1 [CBK297940]	104
NCCN(C(=O)CCc1cc(C(F)(F)F)cc(C(F)(F)F)c1)c1ccc2c(c1)OCO2 [CBK000701T]	105
CC(NC(=O)c1ccc(-c2ccccc2F)s1)C(=O)N1CCCCC1 (stereo not shown) [CBK305740]	91.3
CC(=O)Nc1ccc(-c2cccc(COC3CCN(C(=O)c4ccc(OC(C)C)cc4)CC3)c2)cc1 [CBK149485]	100
Cc1cc(C)c(C)c(S(=O)(=O)N2CCN(c3ncnc4sc(C)c(C)c34)CC2)c1C [CBK265297]	90.2
CN1CCN(c2ccc(-c3ccc(Cl)cc3)cn2)CC1 [CBK036945]	95.2
Cc1cc(C)c(S(=O)(=O)Nc2nnc(C(F)(F)F)s2)c(C)c1 [CBK045507]	99.7
O=c1c2cn[nH]c2nc(SCc2ccc3c(c2)OCCO3)n1-c1ccccc1 [CBK266593]	91.8

Structure (SMILES)	viability at 28.5 h, 10 µM [%]
O=C(/C=C/c1cn(-c2ccccc2)nc1-c1cc2ccccc2oc1=O)NCc1ccccc1 [CBK266530]	100
CCC(CNC(=O)c1cc(-c2ccco2)nc2c(C(N)=O)ncn12)c1ccccc1 (stereo not shown) [CBK297779]	94.2
COc1ccc(-c2nc(NC(=O)c3ccccn3)cnc2-c2cccc(C(F)(F)F)c2)cc1 [CBK036785]	110
CCc1nn(CC(=O)N2CCCC2)c(=O)c2cc3sccc3n12 [CBK284028]	85.8
O=C(NCc1ccsc1)N1CCCN(Cc2ccc(Cl)cc2)CC1 [CBK305450]	86.4
Fc1ccc(Nc2cncc(-c3cccs3)n2)cc1Cl [CBK065813]	94.3
COc1cc(Nc2cccc(-c3ccco3)n2)cc(OC)c1OC [CBK037724]	108
Fc1ccc2[nH]c3c(c2c1)CCOC31CCN(C/C=C\c2ccccc2)CC1 [CBK040141]	70.1
COCCN(Cc1cnn(C)c1)C(=O)c1nc2ccccn2c1F [CBK306892]	100
Cc1ccc(NC(=O)c2cnc(SCc3ccc(F)cc3)n(C)c2=O)cc1C [CBK287674]	90.5
CCC(Sc1nc2ccc(F)cc2[nH]1)C(=O)O (stereo not shown) [CBK287174]	106
CNC(=S)N(Cc1ccc(S(N)(=O)=O)cc1)C1CC(=O)N(c2ccc(OC)cc2)C1=O (stereo not shown) [CBK262940]	95.1
OCCOCCNc1ncnc2sc(-c3ccccc3)cc12 [CBK265951]	76
C=CCn1c(Cc2csc(NC(=O)c3cccc([N+](=O)[O-])c3)n2)n[nH]c1=S [CBK295339]	106
CC(=O)Nc1cccc(NC(=O)N2CCNC(=O)C2)c1 [CBK155863]	77.7
CC(O)c1cccc(NC(=O)CCC(=O)O)c1 (stereo not shown) [CBK264691]	94.1
COc1ccc(C(=O)C2=C(O)C(=O)N(Cc3cccnc3)C2c2ccc(OC)cc2OC)c(C)c1 (stereo not shown) [CBK264928]	89.7
COc1ccc(C(=O)N2CCC[C@H]3NC(=O)COc4ccccc4C(=O)N[C@@H]4CCOC[C@@H]4C/C=C/C[C@@H]32)cc1 [CBK292194]	102
O=C(O)CSc1nc(O)c2c(-c3ccccc3)csc2n1 [CBK268067]	107
O=[N+]([O-])c1ccccc1CS(=O)(=O)Nc1ccc(-c2nnn[nH]2)cc1 [CBK155430]	94.5
Cc1ccc(C2(C)CC(C)(C)N(C(=O)CSc3nnc[nH]3)c3ccccc32)cc1 (stereo not shown) [CBK073918]	89.2

Reference: paper PMC12040169 (PLOS Biology, 2025)
